# Where two headings read alike, the source gives them in different places.
# What was measured:
# Acinetobacter baumannii [1] = assay: MIC/MBC of nanoemulsions against gram-negative isolates (CLSI, alamar blue); format: cell-based; conditions: Acinetobacter baumannii (n = 5)
# Klebsiella pneumoniae = assay: as above; format: cell-based; conditions: Klebsiella pneumoniae (n = 5)
# Burkholderia cepacia = assay: as above; format: cell-based; conditions: Burkholderia cepacia (n = 5)
# [2] = test system: Stenotrophomonas maltophilia; assay: as above; format: cell-based; conditions: Stenotrophomonas maltophilia (n = 5)
# Acinetobacter baumannii [3] = assay: MIC/MBC against clinical isolates (CLSI, alamar blue); conditions: Acinetobacter baumannii
# [4] = test system: Stenotrophomonas maltophilia; assay: MIC/MBC against CF isolates (CLSI, alamar blue); conditions: Stenotrophomonas maltophilia
# Proteus mirabilis = assay: MIC/MBC of nanoemulsions against gram-negative isolates (CLSI, alamar blue); format: cell-based; conditions: Proteus mirabilis (n = 5)
# Escherichia coli = assay: as above; format: cell-based; conditions: Escherichia coli (n = 5)
# [5] = nanoemulsions in the presence of 5 mM EDTA
# [6] = nanoemulsions in the presence of 5 mM EDTA, in µg/mL
# [7] = CF Stenotrophomonas isolate NB41
# [8] = CF Stenotrophomonas isolate NB42
# [9] = CF Stenotrophomonas isolate NB43
# [10] = CF Stenotrophomonas isolate NB44
# [11] = CF Stenotrophomonas isolate NB45
# [12] = CF Stenotrophomonas isolate Steno 1
# [13] = CF Stenotrophomonas isolate Steno 2
# [14] = CF Stenotrophomonas isolate Steno 3
# [15] = CF Stenotrophomonas isolate Steno 4
# [16] = CF Stenotrophomonas isolate Steno 6
# [17] = CF Stenotrophomonas isolate Steno 8
smiles,measurement,setting,value
C[C@H]1COc2c(N3CCN(C)CC3)c(F)cc3c(=O)c(C(=O)O)cn1c23 [Levofloxacin],% resistant,Acinetobacter baumannii [1],20.0%
same,% susceptible,Acinetobacter baumannii [1],80.0%
same,MIC50,Acinetobacter baumannii [1]; [5],0.25 µg/mL
same,% resistant,Klebsiella pneumoniae,20.0%
same,% susceptible,Klebsiella pneumoniae,80.0%
same,MIC50,Klebsiella pneumoniae; [5],0.06 µg/mL
same,MIC Range,Klebsiella pneumoniae; [6],0.06-8
same,% resistant,Burkholderia cepacia,0.0%
same,% susceptible,Burkholderia cepacia,100.0%
same,MIC50,Burkholderia cepacia; [5],2 µg/mL
same,MIC Range,Burkholderia cepacia; [6],1-2
same,% resistant,[2],20.0%
same,% susceptible,[2],60.0%
same,MIC50,[2]; [5],0.5 µg/mL
same,MIC Range,[2]; [6],0.5-8
same,MIC50,Acinetobacter baumannii [3],16 µg/mL
same,MIC90,Acinetobacter baumannii [3],> 16 µg/mL
same,MBC,Acinetobacter baumannii [3]; Acinetobacter isolate NB31,16 µg/mL
same,MIC,Acinetobacter baumannii [3]; Acinetobacter isolate NB31,16 µg/mL
same,MBC,Acinetobacter baumannii [3]; Acinetobacter isolate NB32,8 µg/mL
same,MIC,Acinetobacter baumannii [3]; Acinetobacter isolate NB32,8 µg/mL
same,MBC,Acinetobacter baumannii [3]; Acinetobacter isolate NB33,8 µg/mL
same,MIC,Acinetobacter baumannii [3]; Acinetobacter isolate NB33,8 µg/mL
same,MBC,Acinetobacter baumannii [3]; Acinetobacter isolate NB34,16 µg/mL
same,MIC,Acinetobacter baumannii [3]; Acinetobacter isolate NB34,16 µg/mL
same,MBC,Acinetobacter baumannii [3]; Acinetobacter isolate NB35,> 16 µg/mL
same,MIC,Acinetobacter baumannii [3]; Acinetobacter isolate NB35,> 16 µg/mL
same,MBC,Acinetobacter baumannii [3]; Acinetobacter isolate NB36,1 µg/mL
same,MIC,Acinetobacter baumannii [3]; Acinetobacter isolate NB36,1 µg/mL
same,MBC,Acinetobacter baumannii [3]; Acinetobacter isolate NB37,16 µg/mL
same,MIC,Acinetobacter baumannii [3]; Acinetobacter isolate NB37,16 µg/mL
same,MBC,Acinetobacter baumannii [3]; Acinetobacter isolate NB38,> 16 µg/mL
same,MIC,Acinetobacter baumannii [3]; Acinetobacter isolate NB38,8 µg/mL
same,MBC,Acinetobacter baumannii [3]; Acinetobacter isolate NB39,16 µg/mL
same,MIC,Acinetobacter baumannii [3]; Acinetobacter isolate NB39,16 µg/mL
same,MBC,Acinetobacter baumannii [3]; Acinetobacter isolate NB40,> 16 µg/mL
same,MIC,Acinetobacter baumannii [3]; Acinetobacter isolate NB40,> 16 µg/mL
same,MBC,"Acinetobacter baumannii [3]; read-out: MBC 50, 10 Acinetobacter isolates",16 µg/mL
same,MBC,[4],16 µg/mL
same,MIC50,[4],2 µg/mL
same,MIC90,[4],8 µg/mL
same,MBC,[4]; [7],4 µg/mL
same,MIC,[4]; [7],2 µg/mL
same,MBC,[4]; [8],16 µg/mL
same,MIC,[4]; [8],8 µg/mL
same,MBC,[4]; [9],4 µg/mL
same,MIC,[4]; [9],2 µg/mL
same,MBC,[4]; [10],16 µg/mL
same,MIC,[4]; [10],8 µg/mL
same,MBC,[4]; [11],2 µg/mL
same,MIC,[4]; [11],1 µg/mL
same,MBC,[4]; [12],4 µg/mL
same,MIC,[4]; [12],1 µg/mL
same,MBC,[4]; [13],8 µg/mL
same,MIC,[4]; [13],4 µg/mL
same,MBC,[4]; [14],4 µg/mL
same,MIC,[4]; [14],1 µg/mL
same,MBC,[4]; [15],2 µg/mL
same,MIC,[4]; [15],0.5 µg/mL
same,MBC,[4]; [16],4 µg/mL
same,MIC,[4]; [16],2 µg/mL
same,MBC,[4]; [17],2 µg/mL
same,MIC,[4]; [17],2 µg/mL
same,MBC,"[4]; read-out: MBC 50, 11 CF Stenotrophomonas isolates",4 µg/mL
same,% resistant,Proteus mirabilis,0.0%
same,% susceptible,Proteus mirabilis,100.0%
same,MIC50,Proteus mirabilis; [5],0.12 µg/mL
same,MIC Range,Proteus mirabilis; [6],0.06-2
same,% resistant,Escherichia coli,40.0%
same,% susceptible,Escherichia coli,60.0%
